{"source": "PubChem BioAssay AID288", "about": "(DTP/NCI, 2004)", "tested_on": "BDF1 mice, M5076 sarcoma s.c., survival/tumor T/C", "assay": "NCI In Vivo Anticancer Drug Screen. Data for tumor model Sarcoma M5076 (subcutaneous) in B6D2F1 (BDF1) mice", "method": "The antitumor activity of compounds was measured in mice bearing transplantable tumors. Survival or tumor size were measured and the results are expressed as the measurement made in the treated group (T) divided by the measurement made in the vehicle treated control group (C). The tumor model used in this assay is Sarcoma M5076 (subcutaneous) in B6D2F1 (BDF1) mice", "note": "Results filed as inconclusive are left out. Numbered stars: 1 amine (or outer) side, 2 acyl side, 3 side chain; on linkers, the order of the positions; unused ones are H or OH. Bridge positions count the residues as written; N and C are the ends. Square brackets hold non-standard residues; d marks the D form. Peptide text beside a SMILES is read from it. I, II: the chains in the order shown. Actinocin(1to9) = Cc1c2oc3c(C)ccc(C(=O)[*:2])c3nc-2c(C(=O)[*:1])c(N)c1=O; NMeV = CN[CH](C(=O)O)C(C)C; Aze = O=C(O)[CH]1CCN1; Sar = CNCC(=O)O"}
{"smiles": "NCCc1ccc(O)c(O)c1", "values": [{"measurement": "T/C", "setting": "endpoint: mean tumor weight, dose: 25.0 mg/kg/injection, schedule: Q02DX011 (ip), vehicle: saline, higher = larger tumour", "result": "53 % of control"}, {"measurement": "T/C", "setting": "endpoint: mean tumor weight, dose: 50.0 mg/kg/injection, schedule: Q02DX011 (ip), vehicle: saline, higher = larger tumour", "result": "57 % of control"}, {"measurement": "T/C", "setting": "endpoint: mean tumor weight, dose: 100.0 mg/kg/injection, schedule: Q02DX011 (ip), vehicle: saline, higher = larger tumour", "result": "62 % of control"}, {"measurement": "T/C", "setting": "endpoint: mean tumor weight, dose: 200.0 mg/kg/injection, schedule: Q02DX011 (ip), vehicle: saline, higher = larger tumour", "result": "45 % of control"}, {"measurement": "T/C", "setting": "endpoint: mean tumor weight, dose: 400.0 mg/kg/injection, schedule: Q02DX011 (ip), vehicle: saline, higher = larger tumour", "result": "76 % of control"}, {"measurement": "T/C", "setting": "endpoint: mean tumor weight, dose: 800.0 mg/kg/injection, schedule: Q02DX011 (ip), vehicle: saline, higher = larger tumour", "result": "95 % of control"}, {"measurement": "T/C", "setting": "endpoint: median survival time, dose: 12.5 mg/kg/injection, schedule: Q02DX030 (ip), vehicle: saline, higher = longer survival", "result": "114 % of control"}, {"measurement": "T/C", "setting": "endpoint: median survival time, dose: 25.0 mg/kg/injection, schedule: Q02DX030 (ip), vehicle: saline, higher = longer survival", "result": "99 % of control"}, {"measurement": "T/C", "setting": "endpoint: median survival time, dose: 50.0 mg/kg/injection, schedule: Q02DX030 (ip), vehicle: saline, higher = longer survival", "result": "91 % of control"}, {"measurement": "T/C", "setting": "endpoint: median survival time, dose: 100.0 mg/kg/injection, schedule: Q02DX030 (ip), vehicle: saline, higher = longer survival", "result": "100 % of control"}, {"measurement": "T/C", "setting": "endpoint: median survival time, dose: 200.0 mg/kg/injection, schedule: Q02DX030 (ip), vehicle: saline, higher = longer survival", "result": "93 % of control"}, {"measurement": "T/C", "setting": "endpoint: median survival time, dose: 800.0 mg/kg/injection, schedule: Q02DX030 (ip), vehicle: saline, higher = longer survival", "result": "91 % of control"}, {"measurement": "T/C", "setting": "endpoint: median tumor weight (est.), dose: 25.0 mg/kg/injection, schedule: Q02DX011 (ip), vehicle: saline, higher = larger tumour", "result": "58 % of control"}, {"measurement": "T/C", "setting": "endpoint: median tumor weight (est.), dose: 50.0 mg/kg/injection, schedule: Q02DX011 (ip), vehicle: saline, higher = larger tumour", "result": "59 % of control"}, {"measurement": "T/C", "setting": "endpoint: median tumor weight (est.), dose: 100.0 mg/kg/injection, schedule: Q02DX011 (ip), vehicle: saline, higher = larger tumour", "result": "80 % of control"}, {"measurement": "T/C", "setting": "endpoint: median tumor weight (est.), dose: 200.0 mg/kg/injection, schedule: Q02DX011 (ip), vehicle: saline, higher = larger tumour", "result": "62 % of control"}, {"measurement": "T/C", "setting": "endpoint: median tumor weight (est.), dose: 400.0 mg/kg/injection, schedule: Q02DX011 (ip), vehicle: saline, higher = larger tumour", "result": "66 % of control"}, {"measurement": "T/C", "setting": "endpoint: median tumor weight (est.), dose: 800.0 mg/kg/injection, schedule: Q02DX011 (ip), vehicle: saline, higher = larger tumour", "result": "77 % of control"}, {"measurement": "T/C", "setting": "endpoint: median tumor weight change, dose: 12.5 mg/kg/injection, schedule: Q02DX006 (ip), vehicle: saline, higher = larger tumour", "result": "86 % of control"}, {"measurement": "T/C", "setting": "endpoint: median tumor weight change, dose: 25.0 mg/kg/injection, schedule: Q02DX006 (ip), vehicle: saline, higher = larger tumour", "result": "93 % of control"}, {"measurement": "T/C", "setting": "endpoint: median tumor weight change, dose: 50.0 mg/kg/injection, schedule: Q02DX006 (ip), vehicle: saline, higher = larger tumour", "result": "112 % of control"}, {"measurement": "T/C", "setting": "endpoint: median tumor weight change, dose: 100.0 mg/kg/injection, schedule: Q02DX006 (ip), vehicle: saline, higher = larger tumour", "result": "103 % of control"}, {"measurement": "T/C", "setting": "endpoint: median tumor weight change, dose: 200.0 mg/kg/injection, schedule: Q02DX006 (ip), vehicle: saline, higher = larger tumour", "result": "105 % of control"}, {"measurement": "T/C", "setting": "endpoint: median tumor weight change, dose: 400.0 mg/kg/injection, schedule: Q02DX006 (ip), vehicle: saline, higher = larger tumour", "result": "99 % of control"}, {"measurement": "T/C", "setting": "endpoint: median tumor weight change, dose: 800.0 mg/kg/injection, schedule: Q02DX006 (ip), vehicle: saline, higher = larger tumour", "result": "101 % of control"}]}
{"smiles": "CC1(C)OC(C)(C)c2c1nnc(-c1ccccc1[N+](=O)[O-])[n+]2[O-]", "values": [{"measurement": "T/C", "setting": "endpoint: median survival time, dose: 50.0 mg/kg/injection, schedule: Q01DX009 (ip), vehicle: saline with Tween-80, higher = longer survival", "result": "108 % of control"}, {"measurement": "T/C", "setting": "endpoint: median survival time, dose: 100.0 mg/kg/injection, schedule: Q01DX009 (ip), vehicle: saline with Tween-80, higher = longer survival", "result": "99 % of control"}, {"measurement": "T/C", "setting": "endpoint: median survival time, dose: 200.0 mg/kg/injection, schedule: Q01DX009 (ip), vehicle: saline with Tween-80, higher = longer survival", "result": "103 % of control"}, {"measurement": "T/C", "setting": "endpoint: median tumor weight (est.), dose: 50.0 mg/kg/injection, schedule: Q01DX009 (ip), vehicle: saline with Tween-80, higher = larger tumour", "result": "70 % of control"}, {"measurement": "T/C", "setting": "endpoint: median tumor weight (est.), dose: 100.0 mg/kg/injection, schedule: Q01DX009 (ip), vehicle: saline with Tween-80, higher = larger tumour", "result": "110 % of control"}, {"measurement": "T/C", "setting": "endpoint: median tumor weight (est.), dose: 200.0 mg/kg/injection, schedule: Q01DX009 (ip), vehicle: saline with Tween-80, higher = larger tumour", "result": "67 % of control"}]}
{"smiles": "CC[C@]1(O)C[C@H]2CN(CCc3c([nH]c4ccccc34)[C@@](C(=O)OC)(c3cc4c(cc3OC)N(C=O)[C@H]3[C@@](O)(C(=O)OC)[C@H](OC(C)=O)[C@]5(CC)C=CCN6CC[C@]43[C@@H]65)C2)C1", "values": [{"measurement": "T/C", "setting": "endpoint: median survival time, dose: 0.08 mg/kg/injection, schedule: Q02DX030 (ip), vehicle: saline, higher = longer survival", "result": "110 % of control"}, {"measurement": "T/C", "setting": "endpoint: median survival time, dose: 0.08 mg/kg/injection, schedule: Q04DX006 (ip), vehicle: saline, higher = longer survival", "result": "112 % of control"}, {"measurement": "T/C", "setting": "endpoint: median survival time, dose: 0.15 mg/kg/injection, schedule: Q04DX006 (ip), vehicle: saline, higher = longer survival", "result": "97 % of control"}, {"measurement": "T/C", "setting": "endpoint: median survival time, dose: 0.3 mg/kg/injection, schedule: Q04DX006 (ip), vehicle: saline, higher = longer survival", "result": "103 % of control"}, {"measurement": "T/C", "setting": "endpoint: median survival time, dose: 0.6 mg/kg/injection, schedule: Q04DX006 (ip), vehicle: saline, higher = longer survival", "result": "109 % of control"}]}
{"smiles": "Cc1c2oc3c(C)ccc(C(=O)NC4C(=O)NC(C(C)C)C(=O)N5CCCC5C(=O)N(C)CC(=O)N(C)C(C(C)C)C(=O)OC4C)c3nc-2c(C(=O)NC2C(=O)NC(C(C)C)C(=O)N3CCC3C(=O)N(C)CC(=O)N(C)C(C(C)C)C(=O)OC2C)c(N)c1=O", "note": "(stereo not drawn) (I: TV[Aze][Sar][NMeV] / II: TVP[Sar][NMeV]; ester I:1-I:C, II:1-II:C; linker I:N-II:N via Actinocin(1to9); configuration not given here)", "values": [{"measurement": "T/C", "setting": "endpoint: median tumor weight (est.), dose: 14.0 micrograms/kg/injection, schedule: Q02DX011 (ip), vehicle: saline, higher = larger tumour", "result": "112 % of control"}, {"measurement": "T/C", "setting": "endpoint: median tumor weight (est.), dose: 23.3 micrograms/kg/injection, schedule: Q02DX011 (ip), vehicle: saline, higher = larger tumour", "result": "99 % of control"}, {"measurement": "T/C", "setting": "endpoint: median tumor weight (est.), dose: 38.9 micrograms/kg/injection, schedule: Q02DX011 (ip), vehicle: saline, higher = larger tumour", "result": "87 % of control"}, {"measurement": "T/C", "setting": "endpoint: median tumor weight (est.), dose: 64.8 micrograms/kg/injection, schedule: Q02DX011 (ip), vehicle: saline, higher = larger tumour", "result": "120 % of control"}, {"measurement": "T/C", "setting": "endpoint: median tumor weight (est.), dose: 108.0 micrograms/kg/injection, schedule: Q02DX011 (ip), vehicle: saline, higher = larger tumour", "result": "64 % of control"}, {"measurement": "T/C", "setting": "endpoint: median tumor weight (est.), dose: 180.0 micrograms/kg/injection, schedule: Q02DX011 (ip), vehicle: saline, higher = larger tumour", "result": "96 % of control"}, {"measurement": "T/C", "setting": "endpoint: median tumor weight (est.), dose: 300.0 micrograms/kg/injection, schedule: Q02DX011 (ip), vehicle: saline, higher = larger tumour", "result": "59 % of control"}]}
